Measurements taken from US4255585A, “Benzoheterocyclic derivatives of phenoxyacetic acid” (Centre European de Recherches Pharmacologique, priority 1975, dated 1981).
Where two headings read alike, the source gives them in different places.

Columns and labels:
[1] = in vivo; settings: for LD50 at 48 h: mouse, in vivo, po, read-out: LD 50 per os
Experimental: The three compounds were administered in the usual way to lots of 10 male mice (Swiss C.D.) of average weight 20 g. Mortality was assessed after 48 hours for toxicity per os.

[2] = Diuretic activity (diuresis, Na+, K+, uric acid excretion); format: in vivo, Male Swiss C.D. mice; settings: mice; for Uricosuria (coefficient): uric acid by Caraway's method; for Diuresis (coefficient) / K+ (coefficient) / Na+ (coefficient) / Na+/K+: urine sampled 2 and 4 hours
Experimental: The three compounds were administered to Male Swiss C.D. mice of average weight 22 g. The animals were deprived of food and drink for 2 hours prior to treatment.
The animals were grouped two by two in cages where their metabolism is to be monitored. Sampling of the urine 2 and 4 hours after treatment. The experiments were made per lot of six pairs. The products were administered at constant volume.
The following determinations were made:
Na^+ and K^+ ions expressed in milliequivalents (Millival or M. Eq.) excreted in 2 or 4 hours (Eppendorf Flame Photometer);
uric acid excreted expressed in mg/2 or 4 hours determined by Caraway's method (Amer. J. Clin. Pathol. 1955. 25 840).
They are considered in the form of the coefficient: [formula]

[3] = male Swiss C.D. mice, per os, mortality after 48 hours

Structure (SMILES)	LD50 at 48 h [1, 3]	Uricosuria (coefficient) ([2]; 100 mg/kg P.O.)	Diuresis (coefficient) ([2]; 100 mg/kg P.O.)	K+ (coefficient) ([2]; 100 mg/kg P.O.)	Na+ (coefficient) ([2]; 100 mg/kg P.O.)	Na+/K+ ([2]; 100 mg/kg P.O.)	MLD per os [1, 3]	LD50 at 48 h [1]	Uricosuria (coefficient) ([2]; 20 mg/kg P.O.)	Diuresis (coefficient) ([2]; 20 mg/kg P.O.)	K+ (coefficient) ([2]; 20 mg/kg P.O.)	Na+ (coefficient) ([2]; 20 mg/kg P.O.)	Na+/K+ ([2]; 20 mg/kg P.O.)
O=C(O)COc1ccc(C(=O)c2cc3ccccc3o2)c(Cl)c1Cl [Example 1, 4-(2-benzofuryl-keto)-2,3-dichloro-phenoxyacetic acid]	< 1000 mg/kg	1.56	1.3	1.74	1.52	0.87	–	–	–	–	–	–	–
O=C(O)COc1ccc(C(=O)c2cc3ccccc3s2)c(Cl)c1Cl [Example 2, 4-(2-benzothienyl-keto)-2,3-dichloro-phenoxyacetic acid]	–	1.05	1.2	0.91	1.18	1.29	> 1000 mg/kg	–	–	–	–	–	–
O=C(O)COc1ccc(C(=O)c2sc3ccccc3c2Cl)c(Cl)c1Cl [Example 3, 4-[2-(3-chloro)-benzothienyl-keto]-2,3-dichloro-phenoxy acetic acid]	–	1.26	1.3	1.17	1.29	1.10	–	> 1000 mg/kg	–	–	–	–	–
CCc1oc2ccccc2c1C(=O)c1cc(I)c(O)c(I)c1 [benziodarone, reference compound]	–	–	–	–	–	–	–	–	1.44	–	–	–	–
C=C(CC)C(=O)c1ccc(OCC(=O)O)c(Cl)c1Cl [ethacrynic acid, reference compound]	600 mg/kg	–	–	–	–	–	–	–	1.27	2.4	1.48	2.76	1.87
NS(=O)(=O)c1cc(C(=O)O)c(NCc2ccco2)cc1Cl [furosemide, reference compound]	–	–	–	–	–	–	–	–	1.34	3.0	1.51	4.28	2.83
